Data taken from patent US7705007B2, “Cis-imidazolines” (Hoffmann-La Roche Inc., priority 2006, dated 2010).
Where a name gives a salt, the structure may show the parent alone.

Target: interaction between p53 and MDM2 proteins (recombinant GST-tagged MDM2 / p53 peptide) (Homo sapiens, UniProt Q00987)
Test: HTRF assay of inhibition of the p53-MDM2 interaction (GST-MDM2 binding to biotinylated p53 peptide)
Details: 90 nM biotinylated p53 peptide, 160 ng/mL GST-MDM2, 37° C. 1 h
Method: The ability of the compounds to inhibit the interaction between p53 and MDM2 proteins was measured by an HTRF (homogeneous time-resolved fluorescence) assay in which recombinant GST-tagged MDM2 binds to a peptide that resembles the MDM2-interacting region of p53 (Lane et al.). Binding of GST-MDM2 protein and p53-peptide (biotinylated on its N-terminal end) is registered by the FRET (fluorescence resonance energy transfer) between Europium (Eu)-labeled anti-GST antibody and streptavidin-conjugated Allophycocyanin (APC).
Test is performed in black flat-bottom 384-well plates (Costar) in a total volume of 40 uL containing: 90 nM biotinylate peptide, 160 ng/mL GST-MDM2, 20 nM streptavidin-APC (PerkinElmerWallac), 2 nM Eu-labeled anti-GST-antibody (PerkinElmerWallac), 0.2% bovine serum albumin (BSA), 1 mM dithiothreitol (DTT) and 20 mM Tris-borate saline (TBS) buffer as follows: Add 10 uL of GST-MDM2 (640 ng/mL working solution) in reaction buffer to each well. Add 10 uL diluted compounds (1:5 dilution in reaction buffer) to each well, mix by shaking. Add 20 uL biotinylated p53 peptide (180 nM working solution) in reaction buffer to each well and mix on shaker. Incubate at 37° C. for 1 h. Add 20 uL streptavidin-APC and Eu-anti-GST antibody mixture (6 nM Eu-anti-GST and 60 nM streptavidin-APC working solution) in TBS buffer with 0.2% BSA, shake at room temperature for 30 minutes and read using a TRF-capable plate reader at 665 and 615 nm (Victor 5, Perkin ElmerWallac). If not specified, the reagents were purchased from Sigma Chemical Co.

Chain of interaction between p53 and MDM2 proteins (recombinant GST-tagged MDM2 / p53 peptide) (Q00987 whole entry): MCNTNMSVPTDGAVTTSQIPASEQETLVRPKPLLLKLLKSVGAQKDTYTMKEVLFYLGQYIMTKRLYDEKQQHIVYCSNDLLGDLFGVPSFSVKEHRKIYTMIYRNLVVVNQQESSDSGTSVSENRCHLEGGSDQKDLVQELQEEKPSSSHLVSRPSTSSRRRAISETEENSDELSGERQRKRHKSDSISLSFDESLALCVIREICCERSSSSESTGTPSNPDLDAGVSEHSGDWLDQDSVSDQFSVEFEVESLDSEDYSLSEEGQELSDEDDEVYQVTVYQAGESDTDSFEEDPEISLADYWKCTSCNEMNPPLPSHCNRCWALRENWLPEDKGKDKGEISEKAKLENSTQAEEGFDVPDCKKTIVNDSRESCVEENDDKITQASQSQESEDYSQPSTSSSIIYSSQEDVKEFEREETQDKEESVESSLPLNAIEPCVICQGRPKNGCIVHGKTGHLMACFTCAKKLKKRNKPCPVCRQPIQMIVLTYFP

Row | IC50 [nM] | SMILES
1 | 677 | CCOc1nc(C)ncc1C1=N[C@@H](c2ccc(Cl)cc2)[C@@H](c2ccc(Cl)cc2)N1C(=O)N1CCN(CC(=O)N(C)C)CC1 (relative stereo) [Example 17, cis-2-{4-[4,5-Bis-(4-chloro-phenyl)-2-(4-ethoxy-2-methyl-pyrimidin-5-yl)-4,5-dihydro-imidazole-1-carbonyl]-piperazin-1-yl}-N,N-dimethyl-acetamide]
2 | 46 | CCOc1nc(C(C)(C)C)ncc1C1=N[C@@H](c2ccc(Cl)cc2)[C@@H](c2ccc(Cl)cc2)N1C(=O)N1CCNC(=O)C1 (relative stereo) [Example 20, cis-4-[2-(2-tert-Butyl-4-ethoxy-pyrimidin-5-yl)-4,5-bis-(4-chloro-phenyl)-4,5-dihydro-imidazole-1-carbonyl]-piperazin-2-one hydrochloride]
3 | 54 | CCOc1ccsc1C1=N[C@@H](c2ccc(Cl)cc2)[C@@H](c2ccc(Cl)cc2)N1C(=O)N1CCN(CC(=O)N(CCOC)CCOC)CC1 [Example 36, 2-{4-[(4S,5R)-4,5-Bis-(4-chloro-phenyl)-2-(3-ethoxy-thiophen-2-yl)-4,5-dihydro-imidazole-1-carbonyl]-piperazin-1-yl}-N,N-bis-(2-methoxy-ethyl)-acetamide]
4 | 110 | CCOc1ccsc1C1=N[C@@H](c2ccc(Cl)cc2)[C@@H](c2ccc(Cl)cc2)N1C(=O)N1CCN(CC(=O)NC(C)(C)C)CC1 [Example 34, 2-{4-[(4S,5R)-4,5-Bis-(4-chloro-phenyl)-2-(3-ethoxy-thiophen-2-yl)-4,5-dihydro-imidazole-1-carbonyl]-piperazin-1-yl}-N-tert-butyl-acetamide]
5 | 2890 | CCOc1nc(C(F)(F)F)ncc1C1=N[C@@H](c2ccc(Cl)cc2)[C@@H](c2ccc(Cl)cc2)N1C(=O)N1CCN(CCS(C)(=O)=O)CC1 (relative stereo) [Example 6, cis-[4,5-Bis-(4-chloro-phenyl)-2-(4-ethoxy-2-trifluoromethyl-pyrimidin-5-yl)-4,5-dihydro-imidazol-1-yl]-[4-(2-methanesulfonyl-ethyl)-piperazin-1-yl]-methanone]
